Measured values published in PMC4865845, “A human genome-wide loss-of-function screen identifies effective chikungunya antiviral drugs” (Nature Communications, 2016).

System: CHIKV
Type: cell-based, chikungunya virus

s9325 (CTTCAGTGCTGATCAGGTA; chemistry not given here)
Score_si4: 0.41

s9326 (GGACTTAGTATAATGTGAA; chemistry not given here)
Score_si2: 1

s9337 (GCTCTCCAACAATTACTAT; chemistry not given here) [reference compound]
Score_si4: -0.09

s9338 (ACAAGCTCTCCAACAATTA; chemistry not given here) [reference compound]
Score_si2: -0.79

s9339 (TCACTTCTAGTTTTACTTT; chemistry not given here) [reference compound]
Score_si3: -0.69

s9627 (GGACCAGTTTGAGAGTGAA; chemistry not given here)
Score_si2: 1.39

s9628 (GACCTAAAGAAGGAGATTA; chemistry not given here)
Score_si4: 1.13

s9665 (CTCTCGTCCTTCTAGTAAA; chemistry not given here) [reference compound]
Score_si3: -0.95

s9666 (CGTGTACTCTGTTTCGACA; chemistry not given here) [reference compound]
Score_si4: -0.83

s9719 (GGTCTATGATTGACAAGTA; chemistry not given here)
Score_si1: 1.65

s10094 (AGATCAAAGAGATCCGCGA; chemistry not given here)
Score_si4: 0.28

s10096 (GGTGTAAGATCAAAGAGAT; chemistry not given here)
Score_si3: 1.3

s10394 (GCTTTATGCTGCTAAGGCA; chemistry not given here)
Score_si4: 1.23

s10395 (sense GGACGACTTCTTTAAGTCA; chemistry not given here)
Score_si3: 1.58

s10856 (sense AAGTTTACGTGAACAAATT; chemistry not given here)
Score_si3: -0.27

s10857 (sense GAATCCGGTTTGGAATATA; chemistry not given here)
Score_si4: -0.29

s10858 (sense CCCGCTTTATCGAAGGCAA; chemistry not given here)
Score_si2: 1.05

s10955 (sense GAGAAGAAGTATTACTTAT; chemistry not given here)
Score_si4: 0.29

s10956 (sense CAAGCGGATTTCTACCCTT; chemistry not given here)
Score_si1: 1.05

s11515 (sense GGATAACACTGTACAAGCT; chemistry not given here)
Score_si1: 1.79

s11517 (sense GCGAAGTGTTTGTAAATCA; chemistry not given here)
Score_si4: 1.19

s11586 (sense GGATAGTGTTCTTAGCAAT; chemistry not given here)
Score_si4: 0.13

s11587 (sense CAGGTCACATTGTTCCTGA; chemistry not given here)
Score_si2: 1.27

s11745 (sense CACTCTCTGTAAGCATATA; chemistry not given here)
Score_si2: 1.42

s12099 (sense GCTTGTAGGTGATACACCT; chemistry not given here)
Score_si2: 1.09

s12109 (sense CAGCCCTTGTTCTCATCAA; chemistry not given here)
Score_si3: 1.16

s12110 (sense CAATCTCTCTTATCCTTGA; chemistry not given here)
Score_si2: 1.28

s12243 (sense GCTGGGACAAGACACTGTA; chemistry not given here)
Score_si3: 1.87

s12245 (sense CCATCAGGACCACTATTAA; chemistry not given here)
Score_si4: 0.57

s12353 (sense GGCATGTCGGTTACAAGAA; chemistry not given here)
Score_si1: 1.86

s12381 (sense AGGCTCAGATCGACCAATA; chemistry not given here)
Score_si3: 0.71

s12382 (sense GATCCGAGCTAAAATCCCA; chemistry not given here)
Score_si2: 1.86

s12384 (sense TCGTCCTCTTTAACCCTGA; chemistry not given here)
Score_si3: 1.24

s12452 (sense GGACCAAGATGATCAGAAA; chemistry not given here)
Score_si4: 0.08

s12470 (sense GGATGTGGACAACAAAGTA; chemistry not given here)
Score_si4: 1.56

s12471 (sense CTTCTGTACCCATCAGTAA; chemistry not given here)
Score_si3: 1.63

s13805 (sense TCACTGTGCTGATCGGGAA; chemistry not given here)
Score_si3: 0.78

s13806 (sense TCATCACCGTGTCCAATCA; chemistry not given here)
Score_si2: 1.6

s13807 (sense GCATCTGAAGACTCAGGCA; chemistry not given here)
Score_si4: -0.26

s14080 (sense GAGTGGTCTTTTCAACACT; chemistry not given here)
Score_si2: 1.38

s14380 (sense GGACCACGTCAAGACTTGT; chemistry not given here) [reference compound]
Score_si3: -0.84

s14674 (sense GTATGAAGGAGGTATCTTT; chemistry not given here)
Score_si2: 2.12

s14705 (sense GCAGTTGAATTATCACAGT; chemistry not given here)
Score_si2: 1.97

s14706 (sense GCATGATCTAGATCGAGTA; chemistry not given here)
Score_si3: 1.88

s15562 (sense GCTTAGAAATGGACGACGA; chemistry not given here) [reference compound]
Score_si3: -0.27

s15564 (sense GCTTGAAGCTGAAAAGCGA; chemistry not given here) [reference compound]
Score_si4: 1.62

s15614 (sense GCAAGTCGTGAAACTATAA; chemistry not given here)
Score_si4: 0.64

s15684 (sense GGAGCTGATCATCAACAAA; chemistry not given here)
Score_si4: 1.33

s15685 (sense GGATGAGAGTCGCACCTAT; chemistry not given here)
Score_si1: 2.03

s15686 (sense CCATCCACATGTACATCAA; chemistry not given here)
Score_si2: 1.49

s15687 (sense CCCGTATCATGATCCACCA; chemistry not given here)
Score_si1: 1.56

s15796 (CTACGATTCTGGTGGAATA; chemistry not given here)
Score_si1: 1.5

s15797 (GGAATTACGGAGATATAGA; chemistry not given here)
Score_si3: 1.45

s15798 (GAATTACGGAGATATAGAA; chemistry not given here)
Score_si2: 1.46

s16045 (GGTTTATCCACGGTAAAGA; chemistry not given here) [reference compound]
Score_si4: -0.44

s16046 (GCACAGATCCTTCCGTTTA; chemistry not given here) [reference compound]
Score_si3: -0.45

s16047 (GAACCCATATTATTAGTGA; chemistry not given here) [reference compound]
Score_si2: -0.72

s16316 (GAATTAGGAAGGACTATTT; chemistry not given here)
Score_si2: 0.85

s16317 (GAACGAGTCCTTGAAGGTT; chemistry not given here)
Score_si4: 0.08

s16318 (AGGCATCTTTGAGACGATT; chemistry not given here)
Score_si3: 0.61
